Data on three molecules can be found in publication PMC7059793, “Novel Chemical Scaffolds to Inhibit the Neutral Amino Acid Transporter B^0AT1 (SLC6A19), a Potential Target to Treat Metabolic Diseases” (Frontiers in Pharmacology, 2020).

SMILES strings stand for the structures.

In one assay the target is T1, ASCT2 (SLC1A5) (Homo sapiens, UniProt Q15758).
T1 construct: endogenous in cells; host or cells: 143B TK- cells (human osteosarcoma)
T1 sequence (Q15758 1-541): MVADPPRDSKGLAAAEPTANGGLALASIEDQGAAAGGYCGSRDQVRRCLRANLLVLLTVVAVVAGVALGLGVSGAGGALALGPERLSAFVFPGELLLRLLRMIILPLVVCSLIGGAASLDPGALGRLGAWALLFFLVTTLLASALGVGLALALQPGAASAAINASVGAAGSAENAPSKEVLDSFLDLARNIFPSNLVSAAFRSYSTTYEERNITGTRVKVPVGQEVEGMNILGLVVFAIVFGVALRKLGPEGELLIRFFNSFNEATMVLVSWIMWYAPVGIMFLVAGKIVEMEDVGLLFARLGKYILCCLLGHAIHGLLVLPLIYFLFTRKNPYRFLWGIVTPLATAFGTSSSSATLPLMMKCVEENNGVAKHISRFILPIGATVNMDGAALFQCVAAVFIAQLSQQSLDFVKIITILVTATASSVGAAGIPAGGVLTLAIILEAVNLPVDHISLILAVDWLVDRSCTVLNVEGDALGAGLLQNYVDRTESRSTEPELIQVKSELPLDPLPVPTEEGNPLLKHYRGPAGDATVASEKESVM
The assay can be described thus: Na+-dependent [14C]glutamine uptake in 143B cells. The following applies: inhibitor at 10 μM and 50 μM, 100 μM [14C]glutamine. Format: cell-based. On the procedure: (§1) CHO-BC cells with passage numbers from 3 to 10 were used in radio-labelled uptake assays. Before the assay, the cells were seeded out in 35 mm dishes (Corning) and maintained for 48–72 h until reaching 80–90% confluence. To initiate transport, the culture medium was removed and the cells washed three times with HBSS + G. Subsequently, cells were incubated with HBSS + G, radiolabelled substrates (150 μM L-[U-^14C]leucine or 150 μM L-[U-^14C]isoleucine) and inhibitors as indicated in the figures or table in a 37°C water bath for 6 min. To terminate transport, cells were washed three times with ice-cold HBSS pH 7.5. For measuring sodium-independent uptake, NaCl in Hank’s buffer was replaced by NMDG-Cl. Cells were then harvested by homogenizing with 500 µl of 0.1 M HCl. An aliquot of 400 µl was used for scintillation counting and the remainder for protein quantification. To investigate inhibition of ASCT2, uptake of 100 μM [^14C]glutamine was measured in 143B cells in the absence and presence of inhibitor (at 10 μM and 50 μM). To measure inhibition of LAT1, uptake of [^14C]leucine was measured in HBSS + G in which NaCl was replaced by NMDG-Cl in 143B cells in the absence and presence of inhibitor (at 10 μM and 50 μM).
(§2) To investigate the specificity of the compounds further, we tested them in human 143B osteosarcoma cells, which we have extensively characterised previously and used for pharmacological analysis ([Broer et al., 2018]). Na^+-dependent glutamine transport in 143B cells is largely mediated by ASCT2 (SLC1A5). Na^+-independent transport of leucine, by contrast, is mediated entirely by LAT1.

A further assay deals with T2, LAT1 (Homo sapiens, UniProt Q01650).
T2 construct: endogenous in cells; host or cells: 143B TK- cells (human osteosarcoma)
T2 sequence (Q01650 whole entry): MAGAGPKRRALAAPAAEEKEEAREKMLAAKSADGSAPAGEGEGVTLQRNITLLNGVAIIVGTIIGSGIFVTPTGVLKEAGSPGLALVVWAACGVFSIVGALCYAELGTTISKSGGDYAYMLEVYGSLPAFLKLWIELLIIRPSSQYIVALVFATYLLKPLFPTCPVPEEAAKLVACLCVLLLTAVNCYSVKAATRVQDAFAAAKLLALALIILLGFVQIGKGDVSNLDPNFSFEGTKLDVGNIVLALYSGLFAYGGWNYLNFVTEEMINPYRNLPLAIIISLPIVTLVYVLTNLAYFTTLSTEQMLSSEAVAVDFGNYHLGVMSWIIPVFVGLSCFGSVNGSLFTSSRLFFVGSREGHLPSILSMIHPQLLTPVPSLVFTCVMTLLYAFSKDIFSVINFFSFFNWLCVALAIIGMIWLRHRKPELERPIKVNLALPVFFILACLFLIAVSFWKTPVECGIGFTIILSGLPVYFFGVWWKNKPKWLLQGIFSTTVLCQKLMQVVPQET
T2 sequence (P08195 102-630 partner): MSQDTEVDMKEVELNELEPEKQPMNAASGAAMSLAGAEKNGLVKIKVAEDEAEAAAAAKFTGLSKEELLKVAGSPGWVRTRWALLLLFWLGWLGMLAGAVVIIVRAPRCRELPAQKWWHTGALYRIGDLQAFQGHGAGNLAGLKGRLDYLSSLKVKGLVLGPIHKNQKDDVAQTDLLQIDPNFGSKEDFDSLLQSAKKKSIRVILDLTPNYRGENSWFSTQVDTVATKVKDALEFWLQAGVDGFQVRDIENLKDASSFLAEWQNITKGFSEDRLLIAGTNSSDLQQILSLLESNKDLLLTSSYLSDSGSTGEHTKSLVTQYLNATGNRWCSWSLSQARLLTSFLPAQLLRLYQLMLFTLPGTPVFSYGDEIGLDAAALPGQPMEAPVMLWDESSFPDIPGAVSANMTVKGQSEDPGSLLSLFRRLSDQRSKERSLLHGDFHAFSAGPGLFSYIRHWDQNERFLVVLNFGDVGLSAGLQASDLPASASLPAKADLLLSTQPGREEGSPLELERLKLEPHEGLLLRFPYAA
In words: Na+-independent [14C]leucine uptake in 143B cells. Format: cell-based. The settings on record: inhibitor at 10 μM and 50 μM. On the procedure:
as §1, §2

Regarding `Cc1cc(C(=O)Nc2ccc(Cl)cc2C(F)(F)F)no1` [CB3], on ASCT2 (SLC1A5), the “Inhibition of Na+-dependent glutamine uptake (ASCT2)” value (“Inhibition … (ASCT2)” for short) is “failed to inhibit”. Moreover, the “Inhibition of Na+-independent leucine uptake (LAT1)” value (“Inhibition … (LAT1)” for short) at LAT1 was “failed to inhibit”.
On to `Cc1cc(OCC(=O)NC(C)C)cc(C)c1Cl` [Compound E4], for which the “Inhibition … (ASCT2)” value on ASCT2 (SLC1A5) was “failed to inhibit”. In addition, the “Inhibition … (LAT1)” value at LAT1 is given as “failed to inhibit”.
For `COc1ccccc1Nc1nc2ccccc2s1` [Compound E18], the “Inhibition … (ASCT2)” value at ASCT2 (SLC1A5) was “failed to inhibit”. The “Inhibition … (LAT1)” value at LAT1 is recorded as “failed to inhibit”.
